The values below come from patent US5436229A, “Bisulfite adducts of arginine aldehydes” (Eli Lilly and Company, priority 1994, dated 1995).

Non-standard residues stand in square brackets, D forms with d. Residues, ends and D or L forms follow the SMILES beside them. dPip = O=C(O)[C@H]1CCCCN1 Bounds are passed on as bounds.

Data set [1] has as its system coronary artery thrombosis. The data set can be described thus: Canine Model of Coronary Artery Thrombosis. In kind it is in vivo, dogs. The method, then:
Surgical preparation and instrumentation of the dogs are as described in Jackson, et al., Circulation, 82, 930-940 (1990). Mixed-breed hounds (aged 6-7 months, either sex, Hazelton-LRE, Kalamazoo, Mich., U.S.A.) are anesthetized with sodium pentobarbital (30 mg/kg intravenously, i.v.), intubated, and ventilated with room air. Tidal volume and respiratory rates are adjusted to maintain blood PO2, PCO2, and pH within normal limits. Subdermal needle electrodes are inserted for the recording of a lead II ECG.
The left jugular vein and common carotid artery are isolated through a left mediolateral neck incision. Arterial blood pressure (ABP) is measured continuously with a precalibrated Millar transducer (model (MPC-500, Millar Instruments, Houston, Tex., U.S.A.) inserted into the carotid artery. The jugular vein is cannulated for blood sampling during the experiment. In addition, the femoral veins of both hindlegs are cannulated for administration of test compound.
A left thoracotomy is performed at the fifth intercostal space, and the heart is suspended in a pericardial cradle. A 1- to 2-cm segment of the left circumflex coronary artery (LCX) is isolated proximal to the first major diagonal ventricular branch. A 26-gauge needle-tipped wire anodal electrode (Teflon-coated, 30-gauge silverplated copper wire) 3-4 mm long is inserted into the LCX and placed in contact with the intimal surface of the artery (confirmed at the end of the experiment). The stimulating circuit is completed by placing the cathode in a subcutaneous (s.c.) site. An adjustable plastic occluder is placed around the LCX, over the region of the electrode. […] All hemodynamic and ECG measurements are recorded and analyzed with a data acquisition system (model M3000, Modular Instruments, Malvern, Pa. U.S.A.).
Electrolytic injury of the intima of the LCX is produced by applying 100-μA direct current (DC) to the anode. […] Thrombus formation proceeds spontaneously until the LCX is totally occluded (determined as zero CBF and an increase in the S-T segment). […]

In another data set the target is human thrombin (Homo sapiens, UniProt P00734). In words: Thrombin amidase inhibition (Kass), chromogenic substrate. In kind it is biochemical. In a few lines:
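Kass, in liter per mole, was averaged over several compound concentrations, using free thrombin from a rate standard curve and free inhibitor as added minus bound. Hydrolysis of chromogenic substrate (0.25 mg/ml solution) was monitored at 405 nm with human thrombin (8 NIH units/ml solution) in Tris-NaCl buffer pH 7.4, compound in 50% aqueous methanol.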

The next data set deals with template bleeding time. The data set can be described thus: Template Bleeding Time assay. It is filed as in vivo, dogs. The note with it: 0.25, 0.50 and 1.0 mg/kg.hr, over a 240 minute time. The procedure: Whole blood cell counts, hemoglobin, and hematocrit values are determined on a 40-μl sample of citrated (3.8 percent) blood (1 part citrate:9 parts blood) with a hematology analyzer (Cell-Dyn 900, Sequoia-Turner. Mount View, Calif., U.S.A.). Gingival template bleeding times are determined with a Simplate II bleeding time device (Organon Teknika Durham, N.C., U.S.A.). The device is used to make 2 horizontal incisions in the gingiva of either the upper or lower left jaw of the dog. Each incision is 3 mm wide×2 mm deep. The incisions are made, and a stopwatch is used to determine how long bleeding occurs. A cotton swab is used to soak up the blood as it oozes from the incision. Template bleeding time is the time from incision to stoppage of bleeding. Bleeding times are taken just before administration of test compound (0 min), 60 min into infusion, at conclusion of administration of the test compound (120 min), and at the end of the experiment.
All data are analyzed by one-way analysis of variance (ANOVA) followed by Student-Neuman-Kuels post hoc t test to determine the level of significance. Repeated-measures ANOVA are used to determine significant differences between time points during the experiments. Values are determined to be statistically different at least at the level of p<0.05. All values are mean±SEM. […]

The nature of data set [2]: Pharmacokinetic Model, oral gavage. The note with it: dogs, single 2 mg/kg oral gavage. It is filed as in vivo. The method, then: Male dogs (Beagles; 18 months-2 years; 12-13 kg, Marshall Farms, North Rose, N.Y. 14516) are fasted overnight and fed Purina certified Prescription Diet (Purina Mills, St. Louis, Mo.) 240 minutes after dosing. Water is available ad libitum. The room temperature is maintained between 66°-74° F.; 45-50 percent relative humidity; and lighted from 0600-1800 hours.
Test compound is formulated immediately prior to dosing by dissolving in sterile 0.9 percent saline to a 5 mg/ml preparation. Dogs are given a single 2 mg/kg dose of test compound by oral gavage. Blood samples (4.5 ml) are taken from the cephalic vein at 0.25, 0.5, 0.75, 1,2,3,4 and 6 hours after dosing. Samples are collected in citrated Vacutainer tubes and kept on ice prior to reduction to plasma by centrifugation. Plasma samples are derivatized with dinitrophenylhydrazine and analyzed by HPLC (Zorbax SB-C8 column) eluting with methanol/500 mM sodium acetate adjusted to pH7 with phosphoric acid (60:40, v/v). Plasma concentration of test compound is recorded and used to calculate the pharmacokinetic parameters: elimination rate constant, Ke; total clearance, Clt; volume of distribution, VD; time of maximum plasma test compound concentration, Tmax; maximum concentration of test compound of Tmax, Cmax; plasma half-life, t0.5; and area under the curve, A.U.C.; fraction of test compound absorbed, F.

Data set [3] can be described thus: Index of Bioavailability (plasma TT AUC, oral vs i.v.). In kind it is in vivo. To be noted: rats, oral vs i.v. bolus. An excerpt: Assays are done in duplicate and averaged.
Each sample population represents alternating sequential time points.

Data set [4] addresses T1, tissue plasminogen activator (t-PA) (Homo sapiens, UniProt P00750).
T1 construct: purchased American Diagnostica, Greenwich, Conn
The data set can be described thus: Serine protease inhibition (Kass), t-PA. In kind it is biochemical.

Data set [5] concerns human plasma. The data set can be described thus: Human plasma anticoagulation, thrombin time (TT). It is filed as biochemical. In a few lines:
(§1)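 Compounds added across a wide concentration range to human plasma; APTT, PT and TT clotting times measured on a coagulation instrument, bovine thrombin used for plasma assays. Concentration doubling clotting time estimated by linear extrapolation.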

Data set [6] has as its system human plasma. In words: Human plasma anticoagulation, prothrombin time (PT). In kind it is biochemical. In a few lines:
as §1

The next data set deals with T2, Bovine trypsin (Bos taurus, UniProt P00760).
T2 construct: Bovine trypsin is purchased from Worthington Biochemicals; purchased Worthington Biochemicals, Freehold, N.J
T2 sequence (P00760 24-246): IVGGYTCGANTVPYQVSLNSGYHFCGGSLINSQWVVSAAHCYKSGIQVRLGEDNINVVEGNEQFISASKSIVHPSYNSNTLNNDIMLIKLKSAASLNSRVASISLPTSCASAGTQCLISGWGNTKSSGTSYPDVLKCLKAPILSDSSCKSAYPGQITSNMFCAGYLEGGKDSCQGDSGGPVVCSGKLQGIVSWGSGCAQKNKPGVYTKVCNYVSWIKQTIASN
The data set can be described thus: Serine protease inhibition (Kass), trypsin. It is filed as biochemical. In a few lines: (§2)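 Chromogenic p-nitroanilide substrate assays run as for human thrombin; trypsin with N-Benzoyl-Phe-Val-Arg-p-nitroanilide, human factor Xa with N-Benzoyl-Ile-Glu-Gly-Arg-p-nitroanilide. Values are association constants (Kass).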

A further data set has as its target T3, Human plasmin (Homo sapiens, UniProt P00747).
T3 construct: Human plasmin is purchased from Boehringer Mannheim; purchased Boehringer Mannheim, Indianapolis, Ind
In words: Serine protease inhibition (Kass), plasmin. It is filed as biochemical. In a few lines: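 Kass values come from the thrombin chromogenic procedure applied to fibrinolytic proteases. t-PA (nt-PA single chain, or mt-PA6) paired with substrate H-D-Ile-Pro-Arg-p-nitroanilide; human plasmin paired with H-D-Val-Leu-Lys-p-nitroanilide.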

The target of another data set is T4, factor Xa (Homo sapiens, UniProt P00742).
T4 construct: Human factors X, Xa, IXa, XIa, and XIIa are purchased from Enzyme Research Laboratories; purchased Enzyme Research Laboratories, South Bend, Ind
T4 sequence (P00742 235-488 limits assumed): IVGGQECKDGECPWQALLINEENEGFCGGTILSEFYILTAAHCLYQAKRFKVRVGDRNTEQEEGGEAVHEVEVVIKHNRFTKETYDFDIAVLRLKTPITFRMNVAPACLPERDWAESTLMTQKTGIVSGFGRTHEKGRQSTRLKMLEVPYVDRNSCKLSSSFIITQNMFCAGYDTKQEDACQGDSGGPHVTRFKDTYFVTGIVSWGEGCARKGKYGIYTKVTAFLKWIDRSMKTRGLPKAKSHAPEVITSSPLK
T4 sequence (P00742 41-179 partner limits assumed): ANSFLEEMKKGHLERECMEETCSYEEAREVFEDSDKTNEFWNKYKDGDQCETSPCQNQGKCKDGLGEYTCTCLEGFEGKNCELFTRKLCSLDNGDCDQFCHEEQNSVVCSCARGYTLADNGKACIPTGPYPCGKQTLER
The data set can be described thus: Serine protease inhibition (Kass), factor Xa. In kind it is biochemical. Put shortly:
as §2

In data set [7] the test system is human plasma. The data set can be described thus: Human plasma anticoagulation, activated partial thromboplastin time (APTT). It is filed as biochemical. In a few lines: as §1

T1 sequence (P00750 36-562): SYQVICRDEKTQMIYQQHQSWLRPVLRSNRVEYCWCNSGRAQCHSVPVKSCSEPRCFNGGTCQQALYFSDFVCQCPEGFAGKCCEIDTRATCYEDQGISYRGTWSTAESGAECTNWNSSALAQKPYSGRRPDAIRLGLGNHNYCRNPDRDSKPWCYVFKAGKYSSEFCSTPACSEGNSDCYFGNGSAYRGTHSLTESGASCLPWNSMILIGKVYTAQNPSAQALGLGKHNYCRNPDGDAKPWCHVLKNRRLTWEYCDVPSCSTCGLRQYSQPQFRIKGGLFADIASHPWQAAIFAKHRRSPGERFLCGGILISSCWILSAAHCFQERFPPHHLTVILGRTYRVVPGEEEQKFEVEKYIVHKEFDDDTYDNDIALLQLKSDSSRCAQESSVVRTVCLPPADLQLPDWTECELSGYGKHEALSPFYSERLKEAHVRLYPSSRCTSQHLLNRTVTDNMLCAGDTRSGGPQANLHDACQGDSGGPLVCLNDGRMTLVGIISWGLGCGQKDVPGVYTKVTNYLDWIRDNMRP
T3 sequence (P00747 581-810 limits assumed): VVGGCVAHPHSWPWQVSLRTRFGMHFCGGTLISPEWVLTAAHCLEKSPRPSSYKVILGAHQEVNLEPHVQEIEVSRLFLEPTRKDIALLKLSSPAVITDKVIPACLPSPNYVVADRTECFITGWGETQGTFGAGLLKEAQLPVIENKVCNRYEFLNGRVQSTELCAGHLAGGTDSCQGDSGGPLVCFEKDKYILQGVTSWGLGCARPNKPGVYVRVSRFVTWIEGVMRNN
T3 sequence (P00747 97-580 partner limits assumed): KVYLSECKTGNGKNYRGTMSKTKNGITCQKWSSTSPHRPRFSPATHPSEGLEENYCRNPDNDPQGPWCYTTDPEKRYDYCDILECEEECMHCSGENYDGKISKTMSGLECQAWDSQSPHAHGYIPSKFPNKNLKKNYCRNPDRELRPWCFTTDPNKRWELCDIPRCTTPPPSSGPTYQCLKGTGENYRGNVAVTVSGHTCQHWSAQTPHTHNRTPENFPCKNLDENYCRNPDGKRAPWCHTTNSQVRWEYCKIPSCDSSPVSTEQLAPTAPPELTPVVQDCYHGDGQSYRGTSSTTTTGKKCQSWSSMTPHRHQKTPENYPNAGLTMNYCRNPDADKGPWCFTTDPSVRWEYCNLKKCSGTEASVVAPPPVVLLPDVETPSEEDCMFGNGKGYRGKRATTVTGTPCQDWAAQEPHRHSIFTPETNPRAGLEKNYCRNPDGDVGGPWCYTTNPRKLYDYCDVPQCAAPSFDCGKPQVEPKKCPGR

In the case of `Cl.Cl.N=C(N)NCCC[C@@H](C=O)NC(=O)[C@@H]1CCCN1C(=O)[C@H]1CCCCN1` [Example 1, D-Homoprolinyl-L-Prolinyl-L-Arginine Aldehyde Dihydrochloride] (H-[dPip]-Pro-Arg-aldehyde), in data set [1] (dose 0.25 mg/kg.hr), the “Time to Occlusion” value worked out at 60 min. Besides, the “Time to Occlusion” value in data set [1] (dose 0.50 mg/kg.hr) was determined as 150 min. The “Time to Occlusion” value in data set [1] (dose 1.00 mg/kg.hr) was over 225 min. Further, the “Kass Human Thrombin” value on human thrombin came out at 46 L/mol × 10^6. In addition, the “effect on template bleeding time” value with template bleeding time is on record as “no significant effect on template bleeding time”. In addition, in data set [2], the A.U.C. o-infinity was determined as 4651 ng·h/mL, the Clt/F is 7.28 mL/min/kg, the Cmax stood at 1676 ng/mL and the Ke was found to be 0.0104 min.-1. Besides, in [2], the Tmax is 1 to 2 h, the VD/F came out at 0.729 L/kg and the t0.5 stood at 67 min. Further, in data set [3], the “Percent Relative Activity (Index of Bioavailability)” value was found to be 38%. In addition, in data set [4], the “Kass t-PA” value came out at 0.02 L/mol × 10^6.

As for `CCS(=O)(=O)N[C@H](Cc1ccccc1)C(=O)N1CCC[C@H]1C(=O)N[C@H](C=O)CCCNC(=N)N.Cl` [Example 52, N-(ethylsulfonyl)-D-phenylalanyl-L-Prolinyl-L-Arginine Aldehyde Hydrochloride], the “2 × Clotting time TT” value in the data set on human plasma [5] is given as 9 ng/mL. Besides, in the data set with human plasma [6], the “2 × Clotting time PT” value was determined as 660 ng/mL. Further, the “Kass Human Thrombin” value at human thrombin came out at 450 L/mol × 10^6. In addition, at Bovine trypsin, the “Kass Trypsin” value is 260 L/mol × 10^6. At Human plasmin, the “Kass Plasmin” value was determined as 31 L/mol × 10^6. In data set [3], the “Percent Relative Activity (Index of Bioavailability)” value came out at 31%. Moreover, the “Kass t-PA” value in [4] was 2.9 L/mol × 10^6. The “Kass Xa” value at factor Xa is 2.6 L/mol × 10^6. Besides, the “2 × Clotting time APTT” value with human plasma [7] was found to be 260 ng/mL.
